Laboratory results taken from BindingDB's records for doi:10.1016/j.bmcl.2009.04.143 (Incyte, 2009).

Test: Inhibition of HER2 extracellular domain sheddase activity in human BT474 cells after 72 hrs by ELISA

Row | SMILES | IC50
1 | O=C(NO)[C@H]1CC(CC(=O)N2CCOCC2)CC[C@@H]1C(=O)N1CCN(c2ccccc2)CC1 (mixture of isomers) [(1S,2S,5RS)-N-hydroxy-5-(2-morpholino-2-oxoethyl)-2-(4-phenylpiperazine-1-carbonyl)cyclohexanecarboxamide] | 208 nM
2 | CN1CC(CC(=O)N2CCCCC2)C[C@H](C(=O)NO)[C@H]1C(=O)N1CCN(c2ccccc2)CC1 (mixture of isomers) [(2S,3S,5RS)-N-hydroxy-1-methyl-5-(2-oxo-2-(piperidin-1-yl)ethyl)-2-(4-phenylpiperazine-1-carbonyl)piperidine-3-carboxamide] | 102 nM
3 | O=C(NO)[C@H]1CC(CC(=O)N2CCCC2)CN[C@@H]1C(=O)N1CCN(c2ccccc2)CC1 (mixture of isomers) [(2S,3S,5RS)-N-hydroxy-5-(2-oxo-2-(pyrrolidin-1-yl)ethyl)-2-(4-phenylpiperazine-1-carbonyl)piperidine-3-carboxamide] | 28 nM
4 | O=C(NO)[C@H]1CC2(CC[C@@H]1C(=O)N1CCN(c3ccccc3)CC1)CC2 [(5S,6S)-N-hydroxy-6-(4-phenylpiperazine-1-carbonyl)spiro[2.5]octane-5-carboxamide] | 100 nM
5 | O=C(NO)[C@H]1CC(CC(=O)N2CC[C@@H](O)C2)CC[C@@H]1C(=O)N1CCN(c2ccccc2)CC1 (mixture of isomers) [(1S,2S,5RS)-N-hydroxy-5-(2-((R)-3-hydroxypyrrolidin-1-yl)-2-oxoethyl)-2-(4-phenylpiperazine-1-carbonyl)cyclohexanecarboxamide] | 226 nM
6 | CN1CCN(C(=O)CC2CC[C@H](C(=O)N3CCN(c4ccccc4)CC3)[C@@H](C(=O)NO)C2)CC1 (mixture of isomers) [(1S,2S,5RS)-N-hydroxy-5-(2-(4-methylpiperazin-1-yl)-2-oxoethyl)-2-(4-phenylpiperazine-1-carbonyl)cyclohexanecarboxamide] | 100 nM
